# Patent publication US9920075B2, “Triazolopyridine and triazolopyrimidine inhibitors of myeloperoxidase” (BRISTOL-MYERS SQUIBB COMPANY, priority 2014, dated 2018)
# pIC50: −log10 of the molar value. Where “and” joins values, the source holds several entries; their conditions need not be identical. Equal values may be shown once. Read-outs that look alike come from different tables or passages of the source.
# Target: T1, myeloperoxidase (MPO) (Homo sapiens, UniProt P05164)
# T1 sequence (P05164 49-745): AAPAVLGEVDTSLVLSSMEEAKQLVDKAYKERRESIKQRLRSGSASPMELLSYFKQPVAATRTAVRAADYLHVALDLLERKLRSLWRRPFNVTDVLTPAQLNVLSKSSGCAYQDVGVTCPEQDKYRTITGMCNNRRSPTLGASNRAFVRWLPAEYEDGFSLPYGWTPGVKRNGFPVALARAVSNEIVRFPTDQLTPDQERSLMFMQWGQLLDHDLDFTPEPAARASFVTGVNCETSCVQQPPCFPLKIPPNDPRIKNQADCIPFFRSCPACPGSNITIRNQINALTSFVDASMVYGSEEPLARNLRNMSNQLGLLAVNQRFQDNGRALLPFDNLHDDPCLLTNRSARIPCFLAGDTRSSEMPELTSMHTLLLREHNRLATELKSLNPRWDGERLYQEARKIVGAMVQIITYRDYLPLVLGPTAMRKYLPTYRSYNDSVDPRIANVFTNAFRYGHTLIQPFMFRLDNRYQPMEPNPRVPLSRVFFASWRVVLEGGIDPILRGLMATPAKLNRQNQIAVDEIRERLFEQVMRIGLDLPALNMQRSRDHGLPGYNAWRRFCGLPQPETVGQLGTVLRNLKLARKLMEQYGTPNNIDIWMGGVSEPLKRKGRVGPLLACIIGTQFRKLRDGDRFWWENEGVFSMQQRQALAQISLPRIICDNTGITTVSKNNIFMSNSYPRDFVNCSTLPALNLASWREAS
# Test: MPO peroxidation assay (Amplex Red assay)
# Type: biochemical
# Settings: MPO peroxidation (Amplex Red), ranges given
# Method: MPO Peroxidation Assay (Amplex Red Assay)
# MPO peroxidation activity was measured in 100 mM KPi (pH 7.4) by utilizing the non-fluorescent reagent Amplex Red (Invitrogen Cat. #A12222) which can be oxidized to the highly fluorescent resorufin. Amplex Red is oxidized by the peroxidase action of MPO to resorufin. […] Enzyme and compound were preincubated for ten minutes at room temperature.
# After the ten minute preincubation, 25 μL of an Amplex Red mixture containing 200 μM Amplex Red and 10 mM H2O2 was added to the plate.
# IC50 values were calculated by determining the slope of the linear portion of the kinetic trace (180-540 secs), and using that calculated slope to determine % inhibition occurring at each concentration of inhibitor using the following equation:
# [formula] where A=minimal Y value (activity level of inhibited sample), B=maximal Y value (activity level of uninhibited sample), C=Log IC50, D=Hill Slope, x=concentration of inhibitor. MPO Chlorination Assay (APF Assay)
# [1] = read-out: MPO peroxidation assay IC50 values (binned)
# [2] = MPO peroxidation assay IC50 values (binned)
Compound,pIC50 [1],pIC50 [2]
"Cc1nn(C2CCC(C)C2)nc1COc1cc(N)nc2[nH]nnc12 (mixture of isomers) [Example 72, 7-((5-Methyl-2-(3-methylcyclopentyl)-2H-1,2,3-triazol-4-yl)methoxy)-3H-[1,2,3]triazolo[4,5-b]pyridin-5-amine]",≥ 7.22,
"Nc1cc(OCc2ccc3c(c2)OCO3)c2nn[nH]c2n1 [Example 1, 7-(Benzo[d][1,3]dioxol-5-ylmethoxy)-3H-[1,2,3]triazolo[4,5-b]pyridin-5-amine]",≥ 7.22,
"Nc1cc(OCc2cccc3c2OCCO3)c2nn[nH]c2n1 [Example 2, 7-((2,3-Dihydrobenzo[b][1,4]dioxin-5-yl)methoxy)-3H-[1,2,3]triazolo[4,5-b]pyridin-5-amine]",≥ 7.22,
"Nc1cc(OCc2cccc3c2OC(F)(F)O3)c2nn[nH]c2n1 [Example 3, 7-((2,2-Difluorobenzo[d][1,3]dioxol-4-yl)methoxy)-3H-[1,2,3]triazolo[4,5-b]pyridin-5-amine]",≥ 7.22,
"Nc1cc(OCc2cn(-c3ccccc3)nn2)c2nn[nH]c2n1 [Example 4, 7-((1-Phenyl-1H-1,2,3-triazol-4-yl)methoxy)-3H-[1,2,3]triazolo[4,5-b]pyridin-5-amine]",,6.82 to 7.22
"Nc1cc(OCc2cccc(-c3cccc(F)c3)n2)c2nn[nH]c2n1 [Example 5, 7-((6-(3-Fluorophenyl)pyridin-2-yl)methoxy)-3H-[1,2,3]triazolo[4,5-b]pyridin-5-amine]",6.82 to 7.22,
"Nc1cc(OCc2cccc3cccnc23)c2nn[nH]c2n1 [Example 7, 7-(Quinolin-8-ylmethoxy)-3H-[1,2,3]triazolo[4,5-b]pyridin-5-amine]",≥ 7.22,
"Cn1ncc2cccc(COc3cc(N)nc4[nH]nnc34)c21 [Example 8, 7-((1-Methyl-1H-indazol-7-yl)methoxy)-3H-[1,2,3]triazolo[4,5-b]pyridin-5-amine]",≥ 7.22,
"Cn1ncc2ccc(COc3cc(N)nc4[nH]nnc34)cc21 [Example 9, 7-((1-Methyl-1H-indazol-6-yl)methoxy)-3H-[1,2,3]triazolo[4,5-b]pyridin-5-amine]",≥ 7.22,
"Cc1nn(-c2ccc(F)cc2)nc1COc1cc(N)nc2[nH]nnc12 [Example 10, 7-((2-(4-Fluorophenyl)-5-methyl-2H-1,2,3-triazol-4-yl)methoxy)-3H-[1,2,3]triazolo[4,5-b]pyridin-5-amine]",≥ 7.22,
"Nc1cc(OCc2cccc(C(F)(F)F)n2)c2nn[nH]c2n1 [Example 16, 7-((6-(Trifluoromethyl)pyridin-2-yl)methoxy)-3H-[1,2,3]triazolo[4,5-b]pyridin-5-amine]",≥ 7.22,
"Cn1nc(COc2cc(N)nc3[nH]nnc23)cc1-c1ccccc1 [Example 17, 7-((1-Methyl-5-phenyl-1H-pyrazol-3-yl)methoxy)-3H-[1,2,3]triazolo[4,5-b]pyridin-5-amine]",≥ 7.22,
"Cn1nc(-c2ccccc2)cc1COc1cc(N)nc2[nH]nnc12 [Example 18, 7-((1-Methyl-3-phenyl-1H-pyrazol-5-yl)methoxy)-3H-[1,2,3]triazolo[4,5-b]pyridin-5-amine]",≥ 7.22,
"CCn1nc(C(F)(F)F)cc1COc1cc(N)nc2[nH]nnc12 [Example 19, 7-((1-Ethyl-3-(trifluoromethyl)-1H-pyrazol-5-yl)methoxy)-3H-[1,2,3]triazolo[4,5-b]pyridin-5-amine]",≥ 7.22,
"Cn1nc(C2CC2)cc1COc1cc(N)nc2[nH]nnc12 [Example 20, 7-((3-Cyclopropyl-1-methyl-1H-pyrazol-5-yl)methoxy)-3H-[1,2,3]triazolo [4,5-b]pyridin-5-amine]",≥ 7.22,
"Cc1nn(-c2ccccc2)nc1COc1cc(N)nc2[nH]nnc12 [Example 21, 7-((5-Methyl-2-phenyl-2H-1,2,3-triazol-4-yl)methoxy)-3H-[1,2,3]triazolo [4,5-b]pyridin-5-amine]",,≥ 7.22

Compound,pIC50 [1],pIC50 [2]
"Nc1cc(OCc2nc(-c3ccccc3)no2)c2nn[nH]c2n1 [Example 24, 7-((3-Phenyl-1,2,4-oxadiazol-5-yl)methoxy)-3H-[1,2,3]triazolo[4,5-b]pyridin-5-amine]",6.82 to 7.22,
"Nc1cc(OCc2ncc(-c3ccccc3)o2)c2nn[nH]c2n1 [Example 25, 7-((5-Phenyloxazol-2-yl)methoxy)-3H-[1,2,3]triazolo[4,5-b]pyridin-5-amine]",,6.82 to 7.22
"Nc1cc(OCc2cnc(-c3ccccc3)s2)c2nn[nH]c2n1 [Example 26, 7-((2-Phenylthiazol-5-yl)methoxy)-3H-[1,2,3]triazolo[4,5-b]pyridin-5-amine]",6.00 to 6.82,
"Cc1oc(-c2cc(F)cc(F)c2)nc1COc1cc(N)nc2[nH]nnc12 [Example 27, 7-((2-(3,5-Difluorophenyl)-5-methyloxazol-4-yl)methoxy)-3H-[1,2,3]triazolo[4,5-b]pyridin-5-amine]",6.00 to 6.82,
"Nc1cc(OCc2nnc3cccc(Cl)n23)c2nn[nH]c2n1 [Example 29, 7-((5-Chloro-[1,2,4]triazolo[4,3-a]pyridin-3-yl)methoxy)-3H-[1,2,3]triazolo [4,5-b]pyridin-5-amine]",6.82 to 7.22,
"Nc1cc(OCc2cnn(-c3ccccn3)c2)c2nn[nH]c2n1 [Example 30, 7-((1-(Pyridin-2-yl)-1H-pyrazol-4-yl)methoxy)-3H-[1,2,3]triazolo[4,5-b]pyridin-5-amine]",6.82 to 7.22,
"Cc1nc(-c2ccc(Cl)cc2)ncc1COc1cc(N)nc2[nH]nnc12 [Example 31, 7-((2-(4-Chlorophenyl)-4-methylpyrimidin-5-yl)methoxy)-3H-[1,2,3]triazolo[4,5-b]pyridin-5-amine]",6.00 to 6.82,
"Cn1cnc2cccc(COc3cc(N)nc4[nH]nnc34)c21 [Example 36, 7-((1-Methyl-1H-benzo[d]imidazol-7-yl)methoxy)-3H-[1,2,3]triazolo[4,5-b]pyridin-5-amine]",6.00 to 6.82,
"Nc1cc(OCc2cccc3c2ncn3Cc2ccccc2)c2nn[nH]c2n1 [Example 37, 7-((1-Benzyl-1H-benzo[d]imidazol-4-yl)methoxy)-3H-[1,2,3]triazolo[4,5-b]pyridin-5-amine]",6.00 to 6.82,
"Nc1cc(OCc2cccc3c2nnn3Cc2ccccc2)c2nn[nH]c2n1 [Example 38, 7-((1-Benzyl-1H-benzo[d][1,2,3]triazol-4-yl)methoxy)-3H-[1,2,3]triazolo [4,5-b]pyridin-5-amine]",6.82 to 7.22 and 6.00 to 6.82,
"Cc1oc(-c2ccc(Cl)cc2Cl)nc1COc1cc(N)nc2[nH]nnc12 [Example 39, 7-((2-(2,4-Dichlorophenyl)-5-methyloxazol-4-yl)methoxy)-3H-[1,2,3]triazolo[4,5-b]pyridin-5-amine]",≥ 7.22,
"Nc1cc(OCc2cn3nc(Cl)ccc3n2)c2nn[nH]c2n1 [Example 40, 7-((6-Chloroimidazo[1,2-b]pyridazin-2-yl)methoxy)-3H-[1,2,3]triazolo[4,5-b]pyridin-5-amine]",6.00 to 6.82,
"Nc1cc(OCc2csc(-c3ccccc3)n2)c2nn[nH]c2n1 [Example 42, 7-((2-Phenylthiazol-4-yl)methoxy)-3H-[1,2,3]triazolo[4,5-b]pyridin-5-amine]",6.82 to 7.22,
"N#Cc1ccccc1-c1cc(COc2cc(N)nc3[nH]nnc23)on1 [Example 45, 2-(5-((5-Amino-3H-[1,2,3]triazolo[4,5-b]pyridin-7-yloxy)methyl)isoxazol-3-yl)benzonitrile]",≥ 7.22,
"Cc1nc(-c2ccc(Cl)cc2)sc1COc1cc(N)nc2[nH]nnc12 [Example 49, 7-((2-(4-Chlorophenyl)-4-methylthiazol-5-yl)methoxy)-3H-[1,2,3]triazolo [4,5-b]pyridin-5-amine]",≥ 7.22,
